The supplement of paper PMC10331698
± gives the standard deviation of the averaged measurements.

Experiments:
Test in all cases: level (log10 ratio to DMSO vehicle control); higher = higher biomarker level / cell amount than vehicle control
Conditions in all cases: in DMSO
[1] = compound: FC(F)(F)C(F)(F)C(F)(F)C(F)(F)C(F)(F)CCI [1-Iodo-1H,1H,2H,2H-perfluoroheptane]
Method: (§1)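 BioMAP Diversity Plus panel of 12 human primary cell co-culture systems (3C, 4H, LPS, SAg, BT, BF4T, BE3C, CASM3C, HDF3CGF, KF3CT, MyoF, Mphg). Compounds were added 1 h before stimulation and left for 24 h (MyoF 48 h; BT 72 h for soluble read-outs or 6 d for IgG). Biomarkers were read by ELISA, cytotoxicity by SRB, PBMC viability and proliferation by Alamar Blue. Each well value was divided by the mean of 8 DMSO control wells on the same plate and log10 transformed; duplicate blinded samples were tested at 4 concentrations.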

[2] = compound: NC(=O)C(F)(F)C(F)(F)C(F)(F)F [Heptafluorobutyramide]
Method: as §1

[3] = compound: FC(F)C(F)(F)COCC1CO1 [((2,2,3,3-Tetrafluoropropoxy)methyl)oxirane]
Method: as §1

[4] = compound: O=C(O)C(F)(F)C(F)(F)C(F)F [4H-Perfluorobutanoic acid]
Method: as §1

[5] = compound: O=C(O)C(F)(F)C(F)(F)C(F)(F)C(F)(F)C(F)(F)C(F)(F)F [Perfluoroheptanoic acid]
Method: as §1

[6] = compound: O=C(O)C(F)(F)OC(F)(F)C(F)(F)OC(F)(F)C(=O)O [Perfluoro-3,6-dioxaoctane-1,8-dioic acid]
Method: as §1

[7] = compound: C=C(C)C(=O)OCCC(F)(F)C(F)(F)C(F)(F)C(F)(F)C(F)(C(F)(F)F)C(F)(F)F [(Perfluoro-5-methylhexyl)ethyl 2-methylprop-2-enoate]
Method: as §1

Test System | level (log10) ([1]; 6700 nM) | level (log10) ([1]; 20000 nM) | level (log10) ([1]; 60000 nM) | level (log10) ([2]; 6700 nM) | level (log10) ([2]; 20000 nM) | level (log10) ([2]; 60000 nM) | level (log10) ([3]; 6700 nM) | level (log10) ([3]; 20000 nM) | level (log10) ([3]; 60000 nM) | level (log10) ([4]; 6700 nM) | level (log10) ([4]; 20000 nM) | level (log10) ([4]; 60000 nM) | level (log10) ([5]; 6700 nM) | level (log10) ([5]; 20000 nM) | level (log10) ([5]; 60000 nM) | level (log10) ([6]; 6700 nM) | level (log10) ([6]; 20000 nM) | level (log10) ([6]; 60000 nM) | level (log10) ([7]; 6700 nM) | level (log10) ([7]; 20000 nM)
4H:CD106/VCAM-1 | 0.006 ± 0.051 | 0 ± 0.028 | -0.0205 ± 0.026 | -0.004 ± 0.021 | -0.014 ± 0.025 | -0.0155 ± 0.015 | 0.01 ± 0.013 | -0.017 ± 0.0042 | -0.023 ± 0.017 | -0.003 ± 0.014 | -0.0165 ± 0.011 | 0.0065 ± 0.011 | 0.0215 ± 0.035 | 0.0045 ± 0.049 | 0.007 ± 0.017 | 0.01 ± 0.023 | -0.0125 ± 0.0078 | -0.001 ± 0.0042 | -0.012 ± 0.016 | -0.0005 ± 0.005
4H:SRB | -0.004 ± 0.0057 | -0.01 ± 0.0057 | -0.008 ± 0.013 | -0.0275 ± 0.026 | -0.0165 ± 0.0035 | -0.006 ± 0.018 | -0.015 ± 0.0085 | -0.003 ± 0.0042 | -0.012 ± 0.027 | -0.0085 ± 0.0092 | -0.003 ± 0.0071 | 0.0055 ± 0.0035 | -0.0035 ± 0.005 | 0.0135 ± 0.026 | -0.024 ± 0.021 | -0.0115 ± 0.0078 | -0.0115 ± 0.022 | -0.003 ± 0.027 | 0.002 ± 0.013 | -0.0025 ± 0.019
LPS:CD106/VCAM-1 | -0.0045 ± 0.00071 | -0.008 ± 0.0014 | -0.0165 ± 0.0064 | 0.0005 ± 0.005 | -0.0005 ± 0.012 | -0.0145 ± 0.029 | 0.0015 ± 0.036 | -0.024 ± 0.0071 | -0.032 ± 0.042 | -0.018 ± 0.0071 | -0.0245 ± 0.011 | -0.002 ± 0.025 | -0.014 ± 0.021 | -0.0155 ± 0.025 | -0.013 ± 0.025 | 0.011 ± 0.013 | -0.007 ± 0.0028 | -0.009 ± 0.021 | 0.0045 ± 0.016 | -0.003 ± 0.035
SAg:CD38 | -0.012 ± 0.0042 | 0.007 ± 0.0042 | -0.0125 ± 0.016 | -0.0315 ± 0.029 | -0.03 ± 0.016 | -0.021 ± 0.021 | -0.007 ± 0.0014 | -0.006 ± 0.011 | 0.002 ± 0.023 | 0.008 ± 0.028 | 0.0195 ± 0.0021 | 0.017 ± 0.021 | -0.02 ± 0.0042 | -0.001 ± 0.0057 | -0.0225 ± 0.03 | -0.001 | 0.0015 ± 0.0021 | 0.0055 ± 0.0021 | -0.011 ± 0.016 | -0.0055 ± 0.015
LPS:CD141/Thrombomodulin | -0.016 ± 0.0085 | -0.014 ± 0.0099 | -0.032 ± 0.0014 | -0.018 ± 0.05 | -0.0175 ± 0.064 | -0.0175 ± 0.035 | 0.0055 ± 0.016 | -0.003 ± 0.03 | -0.049 ± 0.013 | -0.009 | -0.012 ± 0.016 | -0.008 ± 0.013 | -0.0115 ± 0.03 | 0.002 ± 0.011 | -0.035 ± 0.0099 | 0.0085 ± 0.019 | 0.0165 ± 0.0092 | 0.003 ± 0.027 | 0.0055 ± 0.0092 | -0.0345 ± 0.021
LPS:sTNF-alpha | 0.003 ± 0.011 | -0.0065 ± 0.04 | -0.0135 ± 0.046 | 0.012 ± 0.017 | 0.013 ± 0.011 | 0.001 ± 0.023 | 0.0135 ± 0.0021 | 0.015 ± 0.013 | 0.0175 ± 0.0021 | 0.0095 ± 0.043 | 0.0095 ± 0.023 | 0.004 ± 0.031 | -0.0265 ± 0.054 | -0.049 ± 0.0071 | -0.0215 ± 0.046 | -0.012 ± 0.057 | 0.0145 ± 0.063 | 0.0445 ± 0.059 | 0.0265 ± 0.04 | 0.0345 ± 0.063
SAg:CD69 | -0.025 ± 0.011 | -0.037 ± 0.0042 | -0.036 ± 0.011 | 0.031 ± 0.034 | 0.02 ± 0.016 | 0.0165 ± 0.05 | -0.0225 ± 0.0078 | -0.018 ± 0.014 | 0 ± 0.03 | -0.0145 ± 0.015 | -0.0165 ± 0.015 | 0.005 ± 0.027 | -0.006 ± 0.0014 | -0.0145 ± 0.0021 | -0.008 ± 0.017 | 0.0045 ± 0.0021 | 0.007 ± 0.0057 | 0 ± 0.0014 | -0.0095 ± 0.015 | -0.0335 ± 0.033
